Consider two compounds from publication PMC6630718, “Discovery of Novel UV-Filters with Favorable Safety Profiles in the 5-Arylideneimidazolidine-2,4-dione Derivatives Group” (Molecules, 2019).

“And” between values parts separate entries of the source, which are not always exact repeats. Identical values can stand only once.

The nature of data set [1]: Photostability in methanol solutions (solar light simulator). The format is physicochemical. The arrangement: λmax pre-irradiation: unit not given beside the values. Conditions: methanol solution; for % of initial AUC post-irradiation / λmax post-irradiation: 1h irradiation at 500 W/m2. The gist of the method:
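Compounds at 25 or 50 µM in methanol, in stoppered quartz cuvettes, were irradiated 1 h at 500 W/m^2 (UV dose 218 kJ/m^2). A solar simulator filtered below 290 nm with an IR block was used. UV absorption spectra before and after irradiation were compared, with UPLC-MS/MS analysis, in duplicate.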

A short description of data set [2]: Ultraviolet spectroscopy in methanol solutions. Format: physicochemical. The following applies: for Absorption Range: scan range 290–400 nm. In a few lines: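 Spectra recorded from 290–400 nm in methanol (50 or 25 μM) in 1 cm quartz cuvettes. εmax taken as the slope of absorbance vs. concentration over 10–50 μM or 2.5–30 μM.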
Data set [3] is described as follows: Ames MPF Penta 2 microplate mutagenicity assay, TA1535. Conditions: Salmonella typhimurium, FIB (fold induction over baseline). As for the experimental part:
The assay is a liquid microplate modification of the traditional Salmonella test. During the procedure, bacteria are exposed to different concentrations of a test compound for 90 min in a medium containing sufficient histidine (S. typhimurium) or tryptophan (E. coli) to support cell divisions. Then, the cultures are diluted in pH indicator medium lacking histidine or tryptophan and aliquoted into 48 wells of a 384-well plate. Within 48 hours, cells that have undergone reversion to amino acid prototrophy will grow into colonies. Bacterial metabolism reduces pH of the medium, changing the color of that well from purple to yellow (https://www.xenometrix.ch).
The following strains were used in the study: S. typhimurium TA98, TA100, TA1535, TA1537 and E. coli wp2 uvrA[pKM101]. TA100, TA1535 and E. coli strains are used for the detection of base substitution mutations, whereas TA98 and TA1537 are utilized for the detection of frameshift mutations. S. typhimurium strains have GC base pairs, whereas E. coli strain has AT base pair at their primary reversion site and detect certain oxidizing mutagens, cross-linking agents and hydrazines.
The test procedure provided by Xenometrix (https://www.xenometrix.ch) and described earlier was followed. Briefly, the bacterial strains were grown overnight in exposure medium and exposed to test compounds 4g and 3b in 24-well plates for 90 min at 37 °C with agitation in the absence (–S9) or presence (+S9) of 4.5% phenobarbital/ β-naphthoflavone-induced rat liver S9. Compounds 4g and 3b were dissolved in DMSO and tested at final concentrations of 0.1, 0.2 and 0.5 mM. After the preincubation, the cultures were diluted in the indicator medium and the contents of each 24-well culture were distributed into 48 wells on a 384-well plate and incubated further for 48 h at 37 °C without agitation. After the exposure, the number of wells containing bacteria was scored by eye for yellow wells. Positive and negative controls were included in the assay, and all doses were done in triplicate.
Pure DMSO was used as the negative control.
The fold increase of revertants relative to the solvent control was determined by dividing the mean number of positive wells at each dose by the solvent control at baseline. The solvent control at baseline was defined as the mean number of positive wells in the solvent control plus one standard deviation (SD). When an increase of more than 2-fold relative to the baseline at more than one dose with a dose–response is observed the sample is classified as positive, whereas when no response >2 times the baseline and no dose–response is stated the sample is negative.

Data set [4] in a line: Photostability in macrogol formulations on PMMA plates (solar light simulator). The format is physicochemical. The following applies: for % of Initial AUC / % of Initial SPFin vitro / % of Initial UVA PF: after 1 h irradiation at 500 W/m^2, formulation F1. The gist of the method: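 Macrogol formulations (2% w/w) applied at 1.3 mg/cm² on PMMA plates were irradiated 1 h at 500 W/m² (218 kJ/m² UV) in a solar simulator with <290 nm cut-off and IR block. SPFin vitro, UVA PF and AUC were compared before and after exposure, with methanol washes analysed by UPLC-MS/MS, in duplicate.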

As a reminder, the fold induction is the ratio of treated to control signal. In the case of `CCOC(=O)CN1C(=O)/C(=C/c2ccc(OC)cc2)N(CC(=O)OCC)C1=O` [Compound 3b, Diethyl 2,2′-((Z)-4-(4-methoxybenzylidene)-2,5-dioxoimidazolidine-1,3-diyl)diacetate], in data set [1], the λmax pre-irradiation was 318, the “% of initial AUC post-irradiation” value is reported as 114.39% and the λmax post-irradiation was 326. In addition, in data set [1] (post-irradiation chromatogram), the “percentage of photoisomer formation” value was 28.4%. Besides, in data set [2], the εmax turned out to be 16310 M⁻¹ cm⁻¹, the λmax amounted to 318 nm and the “Absorption Range” value was 290–362 nm. Moreover, the fold induction at 90 min, 0.1 mM in data set [3] (TA1535, +S9, 0.1 mM) came out at 0.5. In data set [3] (TA1535, +S9, 0.2 mM), the fold induction at 90 min, 0.2 mM amounted to 0.1. Also, the fold induction at 90 min, 0.5 mM in data set [3] (TA1535, +S9, 0.5 mM) was determined as 0.1. Besides, the fold induction at 90 min, 0.1 mM in data set [3] (TA1535, –S9, 0.1 mM) was found to be 0.8. Moreover, the fold induction at 90 min, 0.2 mM in data set [3] (TA1535, –S9, 0.2 mM) turned out to be 0.6. For the same compound, the fold induction at 90 min, 0.5 mM in data set [3] (TA1535, –S9, 0.5 mM) was found to be 1.7. Besides, in data set [4], the “% of Initial AUC” value is 84.67% and 76.50%; the “% of Initial SPFin vitro” value was 80.46% and 72.69%; the “% of Initial UVA PF” value is 87.04% and 84.08%. For the same compound, the “photostability (in words)” value in data set [4] (macrogol formulation) is on record as “very good”. For the same compound, in data set [4] (macrogol formulation, UPLC-MS/MS), the “photoisomer in post-irradiation chromatogram” value is 32.1%. In data set [4] (macrogol formulation, post-irradiation chromatogram), the “new photoproduct (besides photoisomer), relative peak area” value is 2.4%.
As to `CCOC(=O)CN1C(=O)/C(=C/C=C/c2ccc(OC)cc2)N(CC(=O)OCC)C1=O` [Compound 4g, Diethyl 2,2′-((Z)-4-((E)-3-(4-methoxyphenyl)allylidene)-2,5-dioxoimidazolidine-1,3-diyl)diacetate], in data set [1], the “decrease of AUC after irradiation” value is 19.9%, the λmax pre-irradiation was 379, the “% of initial AUC post-irradiation” value is reported as 80.15% and the λmax post-irradiation was 378. Besides, in data set [2], the εmax amounted to 54996 M⁻¹ cm⁻¹, the λmax stood at 379 nm and the “Absorption Range” value is on record as 290–400 nm. In addition, the fold induction at 90 min, 0.1 mM in data set [3] (TA1535, +S9, 0.1 mM) is 0.3. Also, the fold induction at 90 min, 0.2 mM in data set [3] (TA1535, +S9, 0.2 mM) was determined as 0.7. In addition, the fold induction at 90 min, 0.5 mM in data set [3] (TA1535, +S9, 0.5 mM) is 0.3. In addition, the fold induction at 90 min, 0.1 mM in data set [3] (TA1535, –S9, 0.1 mM) was found to be 0.3. For the same compound, the fold induction at 90 min, 0.2 mM in data set [3] (TA1535, –S9, 0.2 mM) was determined as 1.4. In data set [3] (TA1535, –S9, 0.5 mM), the fold induction at 90 min, 0.5 mM turned out to be 0.6. Besides, in data set [4], the “% of Initial AUC” value is recorded as 51.98%, the “% of Initial SPFin vitro” value is on record as 86.29% and the “% of Initial UVA PF” value is recorded as 34.39%. For the same compound, in data set [4] (macrogol formulation), the “photostability (in words)” value was “favorable photostability”.
